Source: patent publication US20190284192A1, “NITROGENOUS MACROCYCLIC COMPOUND, PREPARATION METHOD THEREFOR, PHARMACEUTICAL COMPOSITION AND APPLICATION THEREOF” (LUOXIN PHARMACEUTICAL (SHANGHAI) CO., LTD., priority 2016, published 2019)
“And” between values parts separate entries of the source, which are not always exact repeats. Equal values may be shown once. Read-outs that look alike come from different tables or passages of the source.

Legend:
[1] = system: MV-4-11 subcutaneous xenograft tumor; assay: Anti-tumor efficacy in vivo, MV-4-11 subcutaneous xenograft model; design: species or system BALB/c nude mice; settings: for P, tumor volume difference between the control group and the administrated group: Two-way Anova Bonferroni post-test
Procedure: According to the growth of the cells, the treatment was passaged twice a week. When the cells are in the exponential growth phase, the cells are collected, counted, and inoculated.
Experimental protocol: 0.2 mL of cell suspension containing about 5×10^MV-4-11 cells (cell suspended in IMDM medium and added with 50% Matrigel) was inoculated subcutaneously into the right back of each mouse. Group administration was initiated when the average tumor volume reached approximately 136.94 mm^3 (day 15 post inoculation). Grouping method: Animals were weighed before dosing and tumor volume was measured. Grouping designed based on tumor volume.
The experimental indicator is to investigate whether tumor growth can be inhibited, delayed or cured. Tumor diameters were measured with vernier calipers three times a week. The formula for calculating tumor volume is: V=0.5×a×b^2, a and b represent the long and short diameters of the tumor, respectively. The antitumor effect of the compound was evaluated by T/C (%). T/C %=TRTV/CRTV×100% (TRTV: treatment group RTV; CRTV: negative comparative group RTV). The relative tumor volume RTV is calculated as RTV=Vt/V1. Where V1 is the measured tumor volume at the time of group administration (i.e., Day 1), and Vt is the tumor volume at each measurement.
The tumor volume and tumor size were analysed by statistical software. GraphPad Prism software was used for analyzation, p<0.05 is considered to have significant difference, p<0.01 is considered to have extremely significant difference.
Two-way Anova Bonferroni post-test is used to compare the tumor volume difference between the control group and the treatment group.

[2] = Body weight of MV-4-11 tumor-bearing mice during treatment; type: in vivo; settings: intragastric QD*14, ABBV-075 3, GSK762 15, 4009 10 mg/kg
Procedure: The preparation and any revision of this experimental protocol are carried out in accordance with the evaluation criteria of the “Institute for Animal Care and Use (IACUC)” of Shanghai Chempartner Chemical Research Co., Ltd. The use and welfare of laboratory animals are carried out in accordance with the provisions of the Association for Assessment and Accreditation of Laboratory Animal Care (AAALAC). Animals are monitored daily for health and death. Routine examinations include observations of the effects of the test substance and the drug on the daily behavior of the animal such as behavioral activities, intake of water and feeds, weight change (three weights measured weekly), appearance signs or other anormal circumstance. The number of animal deaths and side effects in the group were recorded based on the number of animals in each group.

BRD4 (BD1) = biological target: T1, BRD4 (BD1) (Homo sapiens, UniProt O60885); assay: BRD4 (BD1) bromodomain binding, HTRF; settings: 2 h incubation at r.t.
T1 construct: Each member comprises two tandem bromodomains (BD1 and BD2) for recognizing the acetylated lysine residues

[3] = Cassette pharmacokinetic study, intravenous or oral administration; type: in vivo, female Balb/c nude mice; design: Cmax: unit not given here; settings: for F: PO 2 mg/kg vs IV 0.5 mg/kg; for AUC(0-inf) / AUC(0-t) / MRT inf / clearance / half-life / Vd / Tmax: female, Balb/c nude, mouse, whole blood; for half-life: read-out: Terminal t1/2 (converted); for Vd: read-out: Vss
Procedure: Determinations of the pharmacokinetic parameters of ABBV-075 (standard control), 4009, 4018, 4026 and 4031 in femal Balb/c nude mice after intravenous or oral administration.
Detailed Experimental Steps:
6 female Balb/c nude mice weighing 18-20 g were divided into two groups (3/group), after fixation, the intravenous group: 0.5 mg/kg (5 mL/kg) injected by caudal vein (N=3); the oral group: 2 mg/kg (10 mL/kg) by intragastic administration (N=3). Approximately 20 μL of blood was drawn behind the eyeball at the sampling point and placed in EDTA-2K tube. The sample was immediately diluted with 40 μL of double distilled water and vortexed until well mixed. Blood samples were stored at approximately −70° C. and submitted to the BA group for analysis (LC/MS). 30 μL of blood sample was added with 200 μL of H2O and 30 μL of IS dexamethasone, 200 ng/mL), layered by LLE, and 1 mL of MTBW was added as an organic extraction solvent. The mixture was vortexed for 10 min and centrifuged at 10,000 rpm for 5 min. 850 μL of the supernatant was evaporated under nitrogen until desiccated. The desiccated extract was re-mixed with 150 μL of 50% methanol, vortexed for 2 min, and then analyzed by injecting 5 μL of the supernatant into LC-MS/MS.
2. Intravenous/oral administration formula: 5% DMSO, 95% (10% HP-3-CD in water)
3. PK calculation parameter used non-compartment model, WinNonlin 6.4 software calculation

BRD4 (BD2) = biological target: T2, BRD4 (BD2) (Homo sapiens, UniProt O60885); assay: BRD4 (BD2) bromodomain binding, HTRF; settings: 2 h incubation at r.t.
T2 construct: Each member comprises two tandem bromodomains (BD1 and BD2) for recognizing the acetylated lysine residues

[4] = Metabolic stability in human liver microsomes; type: in vitro ADME; settings: human liver microsomes 0.5 mg/mL, NADPH, 37° C.
Procedure: Determinations of the metabolic stability of the compound from the above embodiments, the detailed operation steps are as followed:
1. Preparation of buffer C:
Buffer A: 1.0 L of 0.1 M potassium dihydrogen phosphate buffer (containing 1.0 mM EDTA);
Buffer B: 1.0 L of 0.1 M dipotassium hydrogen phosphate buffer (containing 1.0 mM EDTA);
Buffer C: 500 mL Buffer B was titrated with Buffer A to pH 7.4.
2. 10 mM stock solution preparation:
10 mM test compound: A certain amount of the test compound was weighed and dissolved in DMSO.
10 mM control: 5.455 mg of ketanserin dissolved in 1 mL DMSO.
3. Preparation of the drug solution:
500 μM solution: 5 μL of 10 mM stock solution (see step 2) was added into 95 μL ACN;
1.5 μM dosing solution (dissolved in liver microsome solution):
18.75 μL of 20 mg/mL liver microsomes was added into 479.75 μL of Buffer C, then 1.5 μL of 500 μM solution was added and mixed gently by shaking.
4. Preparation of 6 mM NADPH solution:
15 mg NADPH was weighted, then added into 3 mL of buffer C to prepare a 6 mM NADPH solution.
5. 30 µL of 1.5 μM dosing solution (see step 3) was added into the wells of the 96-well plate set at different time points (0 minutes, 5 minutes, 15 minutes, 30 minutes, 45 minutes), number of dulplicate sample is 2.
6. Preparation of a 0 minutes sample: 135 μL ACN (with internal standard) was added to the 0 minutes well, followed by 15 µL of 6 mM NADPH solution.
7. The 96-well plate containing 1.5 μM dosing solution and NADPH solution were preheated in a 37° C. water bath for 5 minutes.
8. The 15 µL of 6 mM NADPH solution preheated was added into the wells set to 5 minutes, 15 minutes, 30 minutes, 45 minutes, then the reaction was initiated and started counting the time.
10. The sample was vortexed for 10 min, and then centrifuged for 15 minutes on a centrifuge (Thermo Multifuge×3R) using 5594×g.
11. 50 μL of the supernatant was taken from the centrifuged sample, transferred to a 96-well sample plate to which 100 μL of ultrapure water had already been added, mixed, and finally sent to LC-MS/MS for analysis.
Half time (T1/2)=0.693/K (K is the rate constant obtained by linear regression of the logarithm of the concentration as vertical coordinates and the culturing time as the abscissa)
2. According to the equation formula bellow, Excel was used to plot the compound content versus reaction time, as well as half life calculation (min)
Y=(Y0−Plateau)×e^(−K*X)+Plateau
Y0 represents the compound content at 0 minutes; Y represents the compound content; X represents the time point; K represents degration rate constant of the compound; Plateau represents the lowest possible content of the compound (defined herein as 0).

CCS(=O)(=O)Nc1ccc(Oc2ccc(F)cc2F)c(-c2cn(C)c(=O)c3[nH]ccc23)c1 [ABBV-075]
anti-tumor effect on the MV-4-11 cell xenograft tumor mouse model ([1]; ABBV-075 3 mg/kg, GSK762 15 mg/kg, 4009 10 mg/kg, intragastric QD*14): significant anti-tumor effect | T/C % ([1]; TRTV/CRTV, intragastric QD*14, ABBV-075 3, GSK762 15, 4009 10 mg/kg, 15th day): 34.24% | P, tumor volume difference between the control group and the administrated group ([1]; day 1 after administration, ABBV-075 3, GSK762 15, 4009 10 mg/kg): P > 0.05 | P, tumor volume difference between the control group and the administrated group ([1]; day 4 after administration, ABBV-075 3, GSK762 15, 4009 10 mg/kg): P > 0.05 | P, tumor volume difference between the control group and the administrated group ([1]; day 6 after administration, ABBV-075 3, GSK762 15, 4009 10 mg/kg): P > 0.05 | P, tumor volume difference between the control group and the administrated group ([1]; day 8 after administration, ABBV-075 3, GSK762 15, 4009 10 mg/kg): P > 0.05 | P, tumor volume difference between the control group and the administrated group ([1]; day 11 after administration, ABBV-075 3, GSK762 15, 4009 10 mg/kg): P < 0.01 (***) | P, tumor volume difference between the control group and the administrated group ([1]; day 13 after administration, ABBV-075 3, GSK762 15, 4009 10 mg/kg): P < 0.01 (***) | P, tumor volume difference between the control group and the administrated group ([1]; day 15 after administration, ABBV-075 3, GSK762 15, 4009 10 mg/kg): P < 0.01 (***) | Average tumor weight, 15th day of treatement ([1]; intragastric QD*14, ABBV-075 3, GSK762 15, 4009 10 mg/kg): 0.314 ± 0.05 g | Average tumor volume, Treatement starts 1st day ([1]; intragastric QD*14, ABBV-075 3, GSK762 15, 4009 10 mg/kg, 1st day): 136.45 ± 14.05 mm^3 | Tumor volume TGI (%) 4th day ([1]; intragastric QD*14, ABBV-075 3, GSK762 15, 4009 10 mg/kg, 4th day): 97.12% | Tumor volume TGI (%) 6th day ([1]; intragastric QD*14, ABBV-075 3, GSK762 15, 4009 10 mg/kg, 6th day): 69.45% | Tumor volume TGI (%) 8th day ([1]; intragastric QD*14, ABBV-075 3, GSK762 15, 4009 10 mg/kg, 8th day): 73.8% | Tumor volume TGI (%) 11th day ([1]; intragastric QD*14, ABBV-075 3, GSK762 15, 4009 10 mg/kg, 11th day): 72.41% | Tumor volume TGI (%) 13th day ([1]; intragastric QD*14, ABBV-075 3, GSK762 15, 4009 10 mg/kg, 13th day): 75.81% | Tumor volume TGI (%) 15th day ([1]; intragastric QD*14, ABBV-075 3, GSK762 15, 4009 10 mg/kg, 15th day): 75.56% | Average tumor volume, Treatement ends 15th day ([1]; intragastric QD*14, ABBV-075 3, GSK762 15, 4009 10 mg/kg, 15th day, 10 mg/kg): 346.72 mm^3 and 346.72 ± 68.96 mm^3 | Average RCBW, Treatment end Day 15 ([2]; relative body weight change vs Day 1): 2.72% | Average body weight, Treatment end Day 15 ([2]; x ± SEM): 21.95 ± 0.36 g | Average body weight, Treatment start Day 1 ([2]; x ± SEM): 21.36 ± 0.21 g | IC50 (BRD4 (BD1)): 2 nM | F [3]: 62.5% | AUC(0-inf) ([3]; IV 0.5 mg/kg, N = 3, cassette): 510 ng·h/mL | AUC(0-t) ([3]; IV 0.5 mg/kg, N = 3, cassette): 457 ng·h/mL | MRT inf ([3]; IV 0.5 mg/kg, N = 3, cassette): 3.1 h | clearance ([3]; IV 0.5 mg/kg, N = 3, cassette): 16.4 mL/min/kg | half-life ([3]; IV 0.5 mg/kg, N = 3, cassette): 2.8 h | Vd ([3]; IV 0.5 mg/kg, N = 3, cassette): 3.06 L/kg | AUC(0-inf) ([3]; PO 2 mg/kg, N = 3, cassette): 1680 ng·h/mL | AUC(0-t) ([3]; PO 2 mg/kg, N = 3, cassette): 1140 ng·h/mL | Tmax ([3]; PO 2 mg/kg, N = 3, cassette): 1 h | half-life ([3]; PO 2 mg/kg, N = 3, cassette): 4.56 h | IC50 (BRD4 (BD2)): 1 nM | HLM_T1/2 [4]: 1465.60 min | CLint scaled at 1 µM ([4]; pH 7.4, read-out: HLM_CLint): 1.19 mL/min/kg

CCS(=O)(=O)Cc1ccc2c(c1)-c1cn(C)c(=O)cc1[C@H](C)N=C2c1ccc(F)cc1 [Compound 4026, (S)-10-((ethylsulfone)methyl)-7-(4-fluorophenyl)-2,5-dimethyl-2,5-dihydro-3H-benzo[c]pyrido[3,4-e]azepin-3-ketone]
IC50 (BRD4 (BD1)): 2 nM | F [3]: 89.5% | Cmax ([3]; PO 2 mg/kg, N = 3, cassette): 1082 | AUC(0-inf) ([3]; IV 0.5 mg/kg, N = 3, cassette): 1140 ng·h/mL | AUC(0-t) ([3]; IV 0.5 mg/kg, N = 3, cassette): 1100 ng·h/mL | MRT inf ([3]; IV 0.5 mg/kg, N = 3, cassette): 3.21 h | clearance ([3]; IV 0.5 mg/kg, N = 3, cassette): 7.5 mL/min/kg | half-life ([3]; IV 0.5 mg/kg, N = 3, cassette): 2.85 h | Vd ([3]; IV 0.5 mg/kg, N = 3, cassette): 1.43 L/kg | AUC(0-inf) ([3]; PO 2 mg/kg, N = 3, cassette): 4050 ng·h/mL | AUC(0-t) ([3]; PO 2 mg/kg, N = 3, cassette): 3740 ng·h/mL | Tmax ([3]; PO 2 mg/kg, N = 3, cassette): 0.5 h | half-life ([3]; PO 2 mg/kg, N = 3, cassette): 4.35 h | IC50 (BRD4 (BD2)): 1 nM | HLM_T1/2 [4]: ∞
